The text below walks through data of patent US10759826B2, “15β-substituted estrone derivatives as selective inhibitors of 17β-hydroxysteroid-dehydrogenases, method of preparation and use thereof” (USTAV ORGANICKE CHEMIE A BIOCHEMIE AV CR, V.V.I., priority 2016, dated 2020).

By melting point is commonly meant the temperature, or range, at which the solid turns liquid. As usually defined, the inhibition is the relative decrease from the control value, in per cent. As a reminder, the pIC50 is the IC50 on a negative log10 scale, so that one unit is a factor of ten.

Structures are written as SMILES. pIC50: −log10 of the molar value.

Data set [1] has as its target T1, human 17βHSD type 5 (Homo sapiens, UniProt P42330).
T1 construct: made in house; host or cells: bacteria (Escherichia coli); supernatant of the lysate
T1 sequence (P42330 1-323): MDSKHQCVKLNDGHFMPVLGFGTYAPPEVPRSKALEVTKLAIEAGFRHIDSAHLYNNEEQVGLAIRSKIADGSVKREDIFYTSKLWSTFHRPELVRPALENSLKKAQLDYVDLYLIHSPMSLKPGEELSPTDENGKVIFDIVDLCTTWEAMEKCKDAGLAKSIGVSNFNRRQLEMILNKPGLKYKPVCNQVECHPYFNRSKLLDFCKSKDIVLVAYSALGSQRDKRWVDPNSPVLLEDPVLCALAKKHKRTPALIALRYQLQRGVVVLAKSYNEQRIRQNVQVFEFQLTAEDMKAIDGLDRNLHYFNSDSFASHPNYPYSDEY
Nature of the data set: Inhibition of recombinant 17βHSD type 5, tritium-labeled substrate conversion. It counts as biochemical. Particulars: 1 μmol · l^−1 test substance. The method, then:
(§1) The inhibitory activity of the test substances was determined for individual isoenzymes from the 17βHSD family, specifically these were the types 1, 2, 3, 4, 5 and 7. Escherichia coli and mammalian cells expression systems were used for recombinant expression of individual isozymes of human 17βHSD. Only in the case of 17HSD5 the enzyme was partially purified and supernatant obtained by centrifugation of the bacterial lysate was used for testing. Systems expressing specific 17βHSD type were suspended in a reaction buffer and incubated with tritium-labeled substrates and respective cofactors at 37° C. in two parallel tests: the control arrangement (DMSO without the inhibitor) and the test arrangement (DMSO with the inhibitor). DMSO serves as a negative control in this case. After 20-30% of the substrate was converted by the activity of the enzyme to the product in a control test, both tests were terminated. Substrate and product from the test arrangement were isolated by SPE (solid phase extraction), and then separated by reverse phase HPLC. Substrate conversion was determined by integration of the signals of the substrate and product, and was expressed in %. For the purposes of the subsequent calculation of enzyme inhibition, the conversion of the control test was designated as 0% inhibition. All tests were performed in triplicates. IC50 values were subsequently determined by a standard method using the “One Ligand Binding” model of SigmaPlot kinetics module (Schustera et. al. J. Ster. Biochem. Mol. Biol. 2011, 125, 148; Möller et. al. Biioorg. Med. Chem. Lett. 2009, 19, 6740; Möller et. al. PLoS One, 2010, 5, 6, e10969).

Data set [2] concerns the target T2, human 17βHSD type 1 (Homo sapiens, UniProt P14061).
T2 construct: made in house; expressing system suspended in buffer, not purified
T2 sequence (P14061 1-328): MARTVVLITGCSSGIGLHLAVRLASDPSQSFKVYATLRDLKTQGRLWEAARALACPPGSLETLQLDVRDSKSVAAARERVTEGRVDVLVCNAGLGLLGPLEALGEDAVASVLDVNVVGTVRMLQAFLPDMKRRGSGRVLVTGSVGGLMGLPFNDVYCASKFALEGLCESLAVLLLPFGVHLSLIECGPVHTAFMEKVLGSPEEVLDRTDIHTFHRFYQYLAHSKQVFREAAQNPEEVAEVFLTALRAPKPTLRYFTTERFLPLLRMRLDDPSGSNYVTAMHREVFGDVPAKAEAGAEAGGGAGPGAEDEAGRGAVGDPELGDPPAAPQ
Nature of the data set: Inhibition of recombinant 17βHSD type 1, tritium-labeled substrate conversion. The note with it: for inhibition at 0.1 µM: 0.1 μmol · l^−1 test substance; for inhibition at 0.1 µM / inhibition at 1 µM: read-out: % of inhibition of human 17βHSD1; for inhibition at 1 µM: 1 μmol · l^−1 test substance; for pIC50: read-out: 17βHSD1 IC50. Type of data set: biochemical. The method, then:
as §1

The target of data set [3] is T3, estrogen receptor α (ERα) (Homo sapiens, UniProt P03372).
T3 construct: expressed in transfected cells
T3 sequence (P03372 1-595): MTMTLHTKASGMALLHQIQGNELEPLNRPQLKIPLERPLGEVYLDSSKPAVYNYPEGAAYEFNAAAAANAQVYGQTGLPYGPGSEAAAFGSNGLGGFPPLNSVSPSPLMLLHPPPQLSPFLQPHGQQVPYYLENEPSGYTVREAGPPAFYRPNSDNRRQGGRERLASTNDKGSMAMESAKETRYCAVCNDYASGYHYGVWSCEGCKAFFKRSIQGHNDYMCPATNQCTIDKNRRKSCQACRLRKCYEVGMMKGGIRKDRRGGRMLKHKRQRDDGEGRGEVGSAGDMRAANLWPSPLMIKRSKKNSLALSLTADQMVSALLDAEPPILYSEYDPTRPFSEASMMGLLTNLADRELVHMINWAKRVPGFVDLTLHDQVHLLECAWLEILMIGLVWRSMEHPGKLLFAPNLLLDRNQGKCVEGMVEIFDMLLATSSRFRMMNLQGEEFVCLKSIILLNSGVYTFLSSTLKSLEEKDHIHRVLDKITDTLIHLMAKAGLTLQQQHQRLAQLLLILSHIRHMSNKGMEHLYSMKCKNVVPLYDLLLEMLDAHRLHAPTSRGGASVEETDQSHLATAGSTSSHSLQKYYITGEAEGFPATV
Put plainly: ERα luciferase reporter assay in U2OS cells. Type of data set: cell-based. Particulars: for ER antagonism in words: testing range 10 μmol·l^−1 to 1 nmol·l^−1.

In turn, `C[C@]12CC[C@@H]3c4ccc(O)cc4CC[C@H]3[C@@H]1[C@H](CCc1ccc(C(F)(F)F)cc1)CC2=O` [Compound 4, 15β-(4-(Trifluoromethyl)phenethyl)-3-hydroxy-estra-1,3,5(10)-trien-17-one] registered a melting point of 168 °C. Also, the “% of inhibition of human 17βHSD5” value in data set [1] was 89%. For the same compound, in data set [2], the inhibition at 0.1 µM is 68%, the inhibition at 1 µM worked out at 91% and the pIC50 was 7.38. Moreover, the “ER antagonism in words” value in data set [3] was “ER antagonist”.

In the case of `C[C@]12CC[C@@H]3c4ccc(O)cc4CC[C@H]3[C@@H]1[C@H](CCc1ccccc1)CC2=O` [Compound 3, 15β-Phenethyl-3-hydroxy-estra-1,3,5(10)-trien-17-one], the “% of inhibition of human 17βHSD5” value in data set [1] is listed as 60%. Also, in data set [2], the inhibition at 0.1 µM was 66%, the inhibition at 1 µM turned out to be 83% and the pIC50 was 7.30. Moreover, in data set [3], the “ER antagonism in words” value is on record as “ER antagonist”.

In turn, `C[C@]12CC[C@@H]3c4ccc(O)cc4CC[C@H]3[C@@H]1[C@H](CCc1ccc3ccccc3c1)CC2=O` [Compound 8, 3-Hydroxy-15β-(2-(naphtalen-2-yl)ethyl)-estra-1,3,5(10)-trien-17-one] had a melting point of 201 °C. In addition, the “% of inhibition of human 17βHSD5” value in data set [1] amounted to 76%. In addition, in data set [2], the inhibition at 0.1 µM was 77%, the inhibition at 1 µM was 92% and the pIC50 is 7.74.

Take `CC(C)(C)Oc1ccc(CC[C@@H]2CC(=O)[C@@]3(C)CC[C@@H]4c5ccc(O)cc5CC[C@H]4[C@H]23)cc1` [Compound 13, 15β-(4-t-Butoxyphenethyl)-3-hydroxy-estra-1,3,5(10)-trien-17-one]: in data set [2], the inhibition at 0.1 µM was 62% and the inhibition at 1 µM was 80%.

For the compound `COc1cccc(CC[C@@H]2CC(=O)[C@@]3(C)CC[C@@H]4c5ccc(O)cc5CC[C@H]4[C@H]23)c1` [Compound 10, 3-Hydroxy-15β-(3-methoxyphenethyl)-estra-1,3,5(10)-trien-17-one], the melting point was determined as 178 °C. In data set [2], the inhibition at 0.1 µM was determined as 72% and the inhibition at 1 µM amounted to 87%.

As for `C=C[C@@H]1CC(=O)[C@@]2(C)CC[C@@H]3c4ccc(O)cc4CC[C@H]3[C@H]12` [Compound 2a, 3-Hydroxy-15β-vinyl-estra-1,3,5(10)-trien-17-one], the melting point worked out at 162 °C. In addition, the “% of inhibition of human 17βHSD5” value in data set [1] amounted to 7%. In data set [2], the inhibition at 0.1 µM is 79%, the inhibition at 1 µM is 95% and the pIC50 is 7.77. Besides, in data set [2] (among 17βHSD types 1, 2, 3, 4, 5, 7), the “isoenzyme selectivity in words” value was “inhibits exclusively the 17βHSD1 isoenzyme”. The “estrogenic effect in words” value in data set [3] is given as “partial estrogenicity”.

With `C[C@]12CC[C@@H]3c4ccc(O)cc4CC[C@H]3[C@@H]1[C@H](CCc1cc(F)c(F)c(F)c1)CC2=O` [Compound 16, 15β-(3,4,5-Trifluorophenethyl)-3-hydroxy-estra-1,3,5(10)-trien-17-one], the melting point came to 182 °C. Further, in data set [1], the “% of inhibition of human 17βHSD5” value turned out to be 79%. Further, in data set [2], the inhibition at 0.1 µM worked out at 67%, the inhibition at 1 µM is 95% and the pIC50 is 7.44.

On to `COc1ccc(CC[C@@H]2CC(=O)[C@@]3(C)CC[C@@H]4c5ccc(O)cc5CC[C@H]4[C@H]23)cc1OC` [Compound 11, 3-Hydroxy-15β-(3,4-dimethoxyphenethyl)-estra-1,3,5(10)-trien-17-one], for which, in data set [2], the inhibition at 0.1 µM turned out to be 36% and the inhibition at 1 µM stood at 67%.

On to `C[C@]12CC[C@@H]3c4ccc(O)cc4CC[C@H]3[C@@H]1[C@H](CCc1c(F)c(F)c(F)c(F)c1F)CC2=O` [Compound 17, 15β-(2,3,4,5,6-Pentafluorophenethyl)-3-hydroxy-estra-1,3,5(10)-trien-17-one], for which the melting point was 151 °C. Moreover, the “% of inhibition of human 17βHSD5” value in data set [1] worked out at 31. %. Also, in data set [2], the inhibition at 0.1 µM is 56% and the inhibition at 1 µM worked out at 90%.
